Data taken from ChEMBL document CHEMBL5505975, “Design, synthesis and biological evaluation of CDC20 inhibitors for treatment of triple-negative breast cancer” (Eur J Med Chem, 2024).
Calls of active or inactive are those of the source. No cut-off for these calls is given here.

Key:
[1] = tested on: MDA-MB-231; test: Induction of apoptosis in human MDA-MB-231 cells assessed as viable cells at 20 uM incubated for 48 hrs by Annexin V-FITC/PI staining based flow cytometric analysis (reference value: 95.10%); format: functional; conditions: read-out: Activity
[2] = Toxicity in female BALB/C mouse implanted with mouse 4T1 cells assessed as lung damage at 20 to 50 mg/kg, iv administered every two days for 21 days by H and E staining based analysis; format: organism-based; conditions: in vivo, 504 h, dose 20-50 mg/kg, time 21 day
[3] = tested on: MDA-MB-231; test: Induction of apoptosis in human MDA-MB-231 cells assessed as late apoptotic cells at 10 uM incubated for 48 hrs by Annexin V-FITC/PI staining based flow cytometric analysis (reference value: 1.06%); format: functional
[4] = tested on: MDA-MB-231; test: Cell cycle arrest in human MDA-MB-231 cells assessed as S phase cells at 20 uM incubated for 48 hrs by PI staining based flow cytometric analysis (reference value: 28.7%); format: functional
[5] = tested on: MDA-MB-231; test: Induction of autophagy in human MDA-MB-231 cells assessed as appearance of ring shaped aggregates at 5 to 20 uM incubated for 48 hrs by DAPI staining based immunofluorescence analysis; format: functional, cell-based; conditions: dose 5-20 µM
[6] = Toxicity in female BALB/C mouse implanted with mouse 4T1 cells assessed as change in serum CK level at 20 to 50 mg/kg, iv administered every two days for 21 days; format: organism-based; conditions: in vivo, 504 h, dose 20-50 mg/kg, time 21 day
[7] = tested on: MDA-MB-231; test: Antimigratory activity in human MDA-MB-231 cells assessed as reduction in migration ability incubated for 24 hrs by wound healing assay; format: functional, cell-based; conditions: dose 2.5-10 µM
[8] = tested on: MDA-MB-231; test: Induction of autophagy in human MDA-MB-231 cells assessed as decrease in P62 expression level incubated for 48 hrs by Western blot analysis; format: functional, cell-based; conditions: dose 5-20 µM
[9] = Toxicity in female BALB/C mouse implanted with mouse 4T1 cells assessed as effect on body weight at 20 to 50 mg/kg, po administered every two days for 21 days; format: organism-based; conditions: in vivo, 504 h, dose 20-50 mg/kg, time 21 day
[10] = Toxicity in female BALB/C mouse implanted with mouse 4T1 cells assessed as change in serum LDH level at 20 to 50 mg/kg, po administered every two days for 21 days; format: organism-based; conditions: in vivo, 504 h, dose 20-50 mg/kg, time 21 day
[11] = tested on: MDA-MB-231; test: Induction of autophagy in human MDA-MB-231 cells assessed as autophagic lysosomes at 10 uM incubated for 48 hrs by transmission electron microscopic analysis; format: functional, cell-based
[12] = tested on: 4T1; test: Antitumor activity against mouse 4T1 cells implanted in female BALB/C mouse assessed as inhibition of tumor weight at 50 mg/kg, iv administered every two days for 21 days relative to control; format: functional, organism-based; conditions: time 21.0 day
[13] = tested on: MDA-MB-231; test: Cell cycle arrest in human MDA-MB-231 cells assessed as S phase cells at 5 uM incubated for 48 hrs by PI staining based flow cytometric analysis (reference value: 16.0%); format: functional
[14] = Toxicity in female BALB/C mouse implanted with mouse 4T1 cells assessed as change in RBC level at 20 to 50 mg/kg, iv administered every two days for 21 days by routine blood analysis; format: organism-based; conditions: in vivo, 504 h, dose 20-50 mg/kg, time 21 day
[15] = tested on: MDA-MB-231; test: Induction of apoptosis in human MDA-MB-231 cells assessed as early apoptotic cells at 20 uM incubated for 48 hrs by Annexin V-FITC/PI staining based flow cytometric analysis (reference value: 2.25 %); format: functional
[16] = tested on: MDA-MB-231; test: Cell cycle arrest in human MDA-MB-231 cells assessed as G1 phase cells at 20 uM incubated for 48 hrs by PI staining based flow cytometric analysis (reference value: 76.7%); format: functional
[17] = Toxicity in female BALB/C mouse implanted with mouse 4T1 cells assessed as heart damage at 20 to 50 mg/kg, po administered every two days for 21 days by H and E staining based analysis; format: organism-based; conditions: in vivo, 504 h, dose 20-50 mg/kg, time 21 day
[18] = Toxicity in female BALB/C mouse implanted with mouse 4T1 cells assessed as change in serum ALT level at 20 to 50 mg/kg, po administered every two days for 21 days; format: organism-based; conditions: in vivo, 504 h, dose 20-50 mg/kg, time 21 day
[19] = Toxicity in female BALB/C mouse implanted with mouse 4T1 cells assessed as effect on lymphocytes at 20 to 50 mg/kg, po administered every two days for 21 days by routine blood analysis; format: organism-based; conditions: in vivo, 504 h, dose 20-50 mg/kg, time 21 day
[20] = tested on: MDA-MB-231; test: Cell cycle arrest in human MDA-MB-231 cells assessed as G1 phase cells at 20 uM incubated for 72 hrs by PI staining based flow cytometric analysis (reference value: 56.7%); format: functional
[21] = tested on: MDA-MB-231; test: Induction of apoptosis in human MDA-MB-231 cells assessed as late apoptotic cells at 20 uM incubated for 48 hrs by Annexin V-FITC/PI staining based flow cytometric analysis (reference value: 1.06%); format: functional
[22] = Toxicity in female BALB/C mouse implanted with mouse 4T1 cells assessed as change in serum LDH level at 20 to 50 mg/kg, iv administered every two days for 21 days; format: organism-based; conditions: in vivo, 504 h, dose 20-50 mg/kg, time 21 day
[23] = tested on: 4T1; test: Antitumor activity against mouse 4T1 cells implanted in female BALB/C mouse assessed as inhibition of tumor growth at 20 to 50 mg/kg, po administered every two days for 21 days; format: functional, organism-based; conditions: dose 20-50 mg/kg, time 21.0 day
[24] = Toxicity in female BALB/C mouse implanted with mouse 4T1 cells assessed as change in number of platelets at 20 to 50 mg/kg, iv administered every two days for 21 days by routine blood analysis; format: organism-based; conditions: in vivo, 504 h, dose 20-50 mg/kg, time 21 day
[25] = Toxicity in female BALB/C mouse implanted with mouse 4T1 cells assessed as spleen damage at 20 to 50 mg/kg, iv administered every two days for 21 days by H and E staining based analysis; format: organism-based; conditions: in vivo, 504 h, dose 20-50 mg/kg, time 21 day
[26] = Toxicity in female BALB/C mouse implanted with mouse 4T1 cells assessed as change in serum AST level at 20 to 50 mg/kg, po administered every two days for 21 days; format: organism-based; conditions: in vivo, 504 h, dose 20-50 mg/kg, time 21 day
[27] = tested on: MDA-MB-231; test: Cell cycle arrest in human MDA-MB-231 cells assessed as S phase cells at 20 uM incubated for 24 hrs by PI staining based flow cytometric analysis (reference value: 28.7%); format: functional
[28] = tested on: MDA-MB-231; test: Induction of autophagy in human MDA-MB-231 cells assessed as increase in LC3BII expression level incubated for 48 hrs by Western blot analysis; format: functional, cell-based
[29] = tested on: MCF7; test: Antiproliferative activity against human MCF7 cells assessed as reduction in cell viability incubated for 96 hrs by MTT assay; conditions: MCF7, 96 h
[30] = tested on: MDA-MB-231; test: Cell cycle arrest in human MDA-MB-231 cells assessed as S phase cells at 20 uM incubated for 48 hrs by PI staining based flow cytometric analysis (reference value: 16.0%); format: functional
[31] = tested on: MDA-MB-231; test: Cell cycle arrest in human MDA-MB-231 cells assessed as S phase cells at 20 uM incubated for 72 hrs by PI staining based flow cytometric analysis (reference value: 28.7%); format: functional
[32] = Toxicity in female BALB/C mouse implanted with mouse 4T1 cells assessed as change in serum BUN level at 20 to 50 mg/kg, iv administered every two days for 21 days; format: organism-based; conditions: in vivo, 504 h, dose 20-50 mg/kg, time 21 day
[33] = Cytotoxicity against human L02 cells assessed as reduction in cell viability incubated for 96 hrs by MTT assay; format: toxicity, cell-based
[34] = Toxicity in female BALB/C mouse implanted with mouse 4T1 cells assessed as kidney damage at 20 to 50 mg/kg, iv administered every two days for 21 days by H and E staining based analysis; format: organism-based; conditions: in vivo, 504 h, dose 20-50 mg/kg, time 21 day
[35] = Toxicity in female BALB/C mouse implanted with mouse 4T1 cells assessed as change in WBC level at 20 to 50 mg/kg, po administered every two days for 21 days by routine blood analysis; format: organism-based; conditions: in vivo, 504 h, dose 20-50 mg/kg, time 21 day

For `CCC(=O)NC(n1cnc2c(Nc3cc(OC)c(OC)c(OC)c3)nc(N)nc21)C(Cl)(Cl)Cl` (stereo not given), which viability at 20 µM [1] is on record?
The viability at 20 µM was 91.7%.

And the Activity [2]?
Its Activity is “Non-Toxic”.

And the Activity [3]?
Its Activity is 2.04%.

What about the Activity [4] of the same molecule?
The Activity was 13.3%.

And the Activity [5]?
Its Activity is “Active”.

And the Activity [6]?
The Activity was “Non-Toxic”.

And the Activity [7]?
The Activity was “Dose-Dependent Effect”.

And the Activity [8]?
Its Activity is “Dose-Dependent Effect”.

What about the Activity [9] of the same molecule?
Its Activity is “Non-Toxic”.

What about the Activity [10] of the same molecule?
Its Activity is “Non-Toxic”.

And the Activity [11]?
The Activity was “Active”.

And the Activity [12]?
The Activity was “inactive”.

What about the Activity [13] of the same molecule?
The Activity was 28.6%.

What about the Activity [14] of the same molecule?
Its Activity is “Non-Toxic”.

What about the Activity [15] of the same molecule?
The Activity was 5.41%.

What about the Activity [16] of the same molecule?
Its Activity is 59%.

And the Activity [17]?
The Activity was “Non-Toxic”.

And the Activity [18]?
The Activity was “Non-Toxic”.

What about the Activity [19] of the same molecule?
The Activity was “Non-Toxic”.

What about the Activity [20] of the same molecule?
The Activity was 36.4%.

And the Activity [21]?
The Activity was 1.96%.

What about the Activity [22] of the same molecule?
The Activity was “Non-Toxic”.

And the Activity [23]?
The Activity was “Active”.

What about the Activity [24] of the same molecule?
The Activity was “Non-Toxic”.

And the Activity [25]?
Its Activity is “Non-Toxic”.

What about the Activity [26] of the same molecule?
The Activity was “Non-Toxic”.

What about the Activity [27] of the same molecule?
Its Activity is 27.6%.

And the Activity [28]?
The Activity was “Dose-Dependent Effect”.

And the IC50 [29]?
The IC50 was 3.27 µM.

What about the Activity [30] of the same molecule?
Its Activity is 11.6%.

And the Activity [31]?
Its Activity is 12.5%.

What about the Activity [32] of the same molecule?
The Activity was “Non-Toxic”.

What about the IC50 at 96 h [33] of the same molecule?
The IC50 at 96 h was 14.7 µM.

And the Activity [34]?
The Activity was “Non-Toxic”.

And the Activity [35]?
Its Activity is “Non-Toxic”.
